# Laboratory results from patent publication US20230183292A1, “IMMUNOMODULATORS” (priority 2020, published 2023).
# Starred links: 1 amine or outer side, 2 acyl side, 3 side chain; linkers in the order of their positions; H or OH if unused. Positions of bridges follow the written chain, without caps; N, C: chain ends. Non-standard residues stand in square brackets, D forms with d. Residues, ends and D or L forms follow the SMILES beside them. Groups on a side chain read outwards from the residue. *: point of attachment. Cholyl = C[C@H](CCC(=O)*)[C@H]1CC[C@H]2[C@@H]3[C@H](O)C[C@@H]4C[C@H](O)CC[C@]4(C)[C@H]3C[C@H](O)[C@]12C; X35 = O=C(Cn1cc(C[C@H](N[*:1])C(=O)[*:2])c2ccccc21)NCC(F)(F)F; X22 = O=C(Cn1cc(C[C@H](N[*:1])C(=O)[*:2])c2ccccc21)NCCC1CC1; X11 = O=C(Cn1cc(C[C@H](N[*:1])C(=O)[*:2])c2ccccc21)NCCCCCO; X7 = NCCCCNC(=O)Cn1cc(C[C@H](N[*:1])C(=O)[*:2])c2ccccc21; X32 = CCCNC(=O)Cn1cc(C[C@H](N[*:1])C(=O)[*:2])c2ccccc21; X1 = NCCNC(=O)Cn1cc(C[C@H](N[*:1])C(=O)[*:2])c2ccccc21; Pro(4R-Me) = C[C@H]1CN[C@H](C(=O)O)C1; Hyp = O=C(O)[C@@H]1C[C@@H](O)CN1; NMeNle = CCCC[C@H](NC)C(=O)O; NMeA = CN[C@@H](C)C(=O)O; Dab = NCC[C@H](N)C(=O)O; Dap = NC[C@H](N)C(=O)O
# Molecular target: T1, PD-1/PD-L1 (Homo sapiens, UniProt Q9NZQ7)
# T1 construct: TVMV protease site (C); made in house; host or cells: HEK293T cells
# Experiment: PD-1/PD-L1 Homogenous Time-Resolved Fluorescence (HTRF) binding assay
# Conditions: PD-L1-His 10 nM, PD-1-Ig 20 nM; read-out: HTRF IC50
# How it was run: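 Inhibitors pre-incubated 15 min with PD-L1-His (10 nM final) in dPBS, 0.1% BSA, 0.05% Tween-20, then 15 min with PD-1-Ig (20 nM final). Eu-cryptate anti-Ig (1 nM) and APC anti-His (20 nM) added, 30 min equilibration; HTRF 665/620 nm ratio. Human ECD proteins from HEK293T.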
# T1 sequence (Q9NZQ7 18-239): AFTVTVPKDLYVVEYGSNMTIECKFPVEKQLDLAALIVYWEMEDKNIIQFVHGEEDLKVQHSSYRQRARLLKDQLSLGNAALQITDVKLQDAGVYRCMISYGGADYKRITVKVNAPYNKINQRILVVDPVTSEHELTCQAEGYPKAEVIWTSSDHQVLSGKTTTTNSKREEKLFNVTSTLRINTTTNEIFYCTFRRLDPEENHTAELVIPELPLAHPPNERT
row,SMILES,IC50 [nM]
1,CCCC[C@H]1C(=O)N(C)[C@@H](CCCC)C(=O)N[C@@H](CC(C)C)C(=O)N[C@H](C(=O)NCC(N)=O)CSCC(=O)N[C@@H](Cc2ccc(O)cc2)C(=O)N(C)[C@@H](C)C(=O)N[C@@H](CC(N)=O)C(=O)N2CCC[C@H]2C(=O)N[C@@H](CNC(=O)CC[C@@H](C)[C@H]2CC[C@H]3[C@@H]4[C@H](O)C[C@@H]5C[C@H](O)CC[C@]5(C)[C@H]4C[C@H](O)[C@]23C)C(=O)N[C@@H](CC(C)C)C(=O)N2C[C@H](O)C[C@H]2C(=O)N[C@@H](Cc2c[nH]c3ccccc23)C(=O)N[C@@H](CCNC(=O)CC[C@@H](C)[C@H]2CC[C@H]3[C@@H]4[C@H](O)C[C@@H]5C[C@H](O)CC[C@]5(C)[C@H]4C[C@H](O)[C@]23C)C(=O)N[C@@H](Cc2cn(CC(=O)NCCC)c3ccccc23)C(=O)N1C [Example 2023] ({CH2CO}-Y[NMeA]NP[Dap](Cholyl)L[Hyp]W[Dab](Cholyl)[X32][NMeNle][NMeNle]LCG-NH2; thioether N-14),660
2,CCCC[C@H]1C(=O)N(C)[C@@H](CCCC)C(=O)N[C@@H](CC(C)C)C(=O)N[C@H](C(=O)NCC(N)=O)CSCC(=O)N[C@@H](Cc2ccc(O)cc2)C(=O)N(C)[C@@H](C)C(=O)N[C@@H](CC(N)=O)C(=O)N2CCC[C@H]2C(=O)N[C@@H](CNC(=O)CNC(=O)CC[C@@H](C)[C@H]2CC[C@H]3[C@@H]4[C@H](O)C[C@@H]5C[C@H](O)CC[C@]5(C)[C@H]4C[C@H](O)[C@]23C)C(=O)N[C@@H](CC(C)C)C(=O)N2C[C@H](C)C[C@H]2C(=O)N[C@@H](Cc2c[nH]c3ccccc23)C(=O)N[C@@H](CCNC(=O)CNC(=O)CC[C@@H](C)[C@H]2CC[C@H]3[C@@H]4[C@H](O)C[C@@H]5C[C@H](O)CC[C@]5(C)[C@H]4C[C@H](O)[C@]23C)C(=O)N[C@@H](Cc2cn(CC(=O)NCCN)c3ccccc23)C(=O)N1C [Example 2026] ({CH2CO}-Y[NMeA]NP[Dap]([Gly-Cholyl])L[Pro(4R-Me)]W[Dab]([Gly-Cholyl])[X1][NMeNle][NMeNle]LCG-NH2; thioether N-14),400
3,CCCC[C@H]1C(=O)N(C)[C@@H](CCCC)C(=O)N[C@@H](CC(C)C)C(=O)N[C@H](C(=O)NCC(N)=O)CSCC(=O)N[C@@H](Cc2ccc(O)cc2)C(=O)N(C)[C@@H](C)C(=O)N[C@@H](CC(N)=O)C(=O)N2CCC[C@H]2C(=O)N[C@@H](CNC(=O)CNC(=O)CC[C@@H](C)[C@H]2CC[C@H]3[C@@H]4[C@H](O)C[C@@H]5C[C@H](O)CC[C@]5(C)[C@H]4C[C@H](O)[C@]23C)C(=O)N[C@@H](CC(C)C)C(=O)N2C[C@H](C)C[C@H]2C(=O)N[C@@H](Cc2c[nH]c3ccccc23)C(=O)N[C@@H](CCNC(=O)CNC(=O)CC[C@@H](C)[C@H]2CC[C@H]3[C@@H]4[C@H](O)C[C@@H]5C[C@H](O)CC[C@]5(C)[C@H]4C[C@H](O)[C@]23C)C(=O)N[C@@H](Cc2cn(CC(=O)NCCC)c3ccccc23)C(=O)N1C [Example 2027] ({CH2CO}-Y[NMeA]NP[Dap]([Gly-Cholyl])L[Pro(4R-Me)]W[Dab]([Gly-Cholyl])[X32][NMeNle][NMeNle]LCG-NH2; thioether N-14),990
4,CCCC[C@H]1C(=O)N(C)[C@@H](CCCC)C(=O)N[C@@H](CC(C)C)C(=O)N[C@H](C(=O)NCC(N)=O)CSCC(=O)N[C@@H](Cc2ccc(O)cc2)C(=O)N(C)[C@@H](C)C(=O)N[C@@H](CC(N)=O)C(=O)N2CCC[C@H]2C(=O)N[C@@H](CNC(=O)CNC(=O)CC[C@@H](C)[C@H]2CC[C@H]3[C@@H]4[C@H](O)C[C@@H]5C[C@H](O)CC[C@]5(C)[C@H]4C[C@H](O)[C@]23C)C(=O)N[C@@H](CC(C)C)C(=O)N2C[C@H](C)C[C@H]2C(=O)N[C@@H](Cc2c[nH]c3ccccc23)C(=O)N[C@@H](CCNC(=O)CNC(=O)CC[C@@H](C)[C@H]2CC[C@H]3[C@@H]4[C@H](O)C[C@@H]5C[C@H](O)CC[C@]5(C)[C@H]4C[C@H](O)[C@]23C)C(=O)N[C@@H](Cc2cn(CC(=O)NCCC3CC3)c3ccccc23)C(=O)N1C [Example 2028] ({CH2CO}-Y[NMeA]NP[Dap]([Gly-Cholyl])L[Pro(4R-Me)]W[Dab]([Gly-Cholyl])[X22][NMeNle][NMeNle]LCG-NH2; thioether N-14),660
5,CCCC[C@H]1C(=O)N(C)[C@@H](CCCC)C(=O)N[C@@H](CC(C)C)C(=O)N[C@H](C(=O)NCC(N)=O)CSCC(=O)N[C@@H](Cc2ccc(O)cc2)C(=O)N(C)[C@@H](C)C(=O)N[C@@H](CC(N)=O)C(=O)N2CCC[C@H]2C(=O)N[C@@H](CNC(=O)CNC(=O)CC[C@@H](C)[C@H]2CC[C@H]3[C@@H]4[C@H](O)C[C@@H]5C[C@H](O)CC[C@]5(C)[C@H]4C[C@H](O)[C@]23C)C(=O)N[C@@H](CC(C)C)C(=O)N2C[C@H](C)C[C@H]2C(=O)N[C@@H](Cc2c[nH]c3ccccc23)C(=O)N[C@@H](CCNC(=O)CNC(=O)CC[C@@H](C)[C@H]2CC[C@H]3[C@@H]4[C@H](O)C[C@@H]5C[C@H](O)CC[C@]5(C)[C@H]4C[C@H](O)[C@]23C)C(=O)N[C@@H](Cc2cn(CC(=O)NCCCCCO)c3ccccc23)C(=O)N1C [Example 2029] ({CH2CO}-Y[NMeA]NP[Dap]([Gly-Cholyl])L[Pro(4R-Me)]W[Dab]([Gly-Cholyl])[X11][NMeNle][NMeNle]LCG-NH2; thioether N-14),670
6,CCCC[C@H]1C(=O)N(C)[C@@H](CCCC)C(=O)N[C@@H](CC(C)C)C(=O)N[C@H](C(=O)NCC(N)=O)CSCC(=O)N[C@@H](Cc2ccc(O)cc2)C(=O)N(C)[C@@H](C)C(=O)N[C@@H](CC(N)=O)C(=O)N2CCC[C@H]2C(=O)N[C@@H](CNC(=O)CNC(=O)CC[C@@H](C)[C@H]2CC[C@H]3[C@@H]4[C@H](O)C[C@@H]5C[C@H](O)CC[C@]5(C)[C@H]4C[C@H](O)[C@]23C)C(=O)N[C@@H](CC(C)C)C(=O)N2C[C@H](C)C[C@H]2C(=O)N[C@@H](Cc2c[nH]c3ccccc23)C(=O)N[C@@H](CCNC(=O)CNC(=O)CC[C@@H](C)[C@H]2CC[C@H]3[C@@H]4[C@H](O)C[C@@H]5C[C@H](O)CC[C@]5(C)[C@H]4C[C@H](O)[C@]23C)C(=O)N[C@@H](Cc2cn(CC(=O)NCC(F)(F)F)c3ccccc23)C(=O)N1C [Example 2030] ({CH2CO}-Y[NMeA]NP[Dap]([Gly-Cholyl])L[Pro(4R-Me)]W[Dab]([Gly-Cholyl])[X35][NMeNle][NMeNle]LCG-NH2; thioether N-14),5600
7,CCCC[C@H]1C(=O)N(C)[C@@H](CCCC)C(=O)N[C@@H](CC(C)C)C(=O)N[C@H](C(=O)NCC(N)=O)CSCC(=O)N[C@@H](Cc2ccc(O)cc2)C(=O)N(C)[C@@H](C)C(=O)N[C@@H](CC(N)=O)C(=O)N2CCC[C@H]2C(=O)N[C@@H](CNC(=O)CNC(=O)CC[C@@H](C)[C@H]2CC[C@H]3[C@@H]4[C@H](O)C[C@@H]5C[C@H](O)CC[C@]5(C)[C@H]4C[C@H](O)[C@]23C)C(=O)N[C@@H](CC(C)C)C(=O)N2C[C@H](C)C[C@H]2C(=O)N[C@@H](Cc2c[nH]c3ccccc23)C(=O)N[C@@H](CCNC(=O)CNC(=O)CC[C@@H](C)[C@H]2CC[C@H]3[C@@H]4[C@H](O)C[C@@H]5C[C@H](O)CC[C@]5(C)[C@H]4C[C@H](O)[C@]23C)C(=O)N[C@@H](Cc2cn(CC(=O)NCCCCN)c3ccccc23)C(=O)N1C [Example 2031] ({CH2CO}-Y[NMeA]NP[Dap]([Gly-Cholyl])L[Pro(4R-Me)]W[Dab]([Gly-Cholyl])[X7][NMeNle][NMeNle]LCG-NH2; thioether N-14),490
